Reference: patent US8431593B2, “Heteroaryl amide derivatives” (H. Lundbeck A/S, priority 2006, dated 2013)
Like-named read-outs stand apart in the source and are kept apart here. Values belong to the molecule of their own block, whether it stands above or below them.

Target: T1, P2X7 receptor (Homo sapiens, UniProt Q99572)
T1 construct: host or cells: SH-SY5Y
T1 sequence (Q99572 1-595): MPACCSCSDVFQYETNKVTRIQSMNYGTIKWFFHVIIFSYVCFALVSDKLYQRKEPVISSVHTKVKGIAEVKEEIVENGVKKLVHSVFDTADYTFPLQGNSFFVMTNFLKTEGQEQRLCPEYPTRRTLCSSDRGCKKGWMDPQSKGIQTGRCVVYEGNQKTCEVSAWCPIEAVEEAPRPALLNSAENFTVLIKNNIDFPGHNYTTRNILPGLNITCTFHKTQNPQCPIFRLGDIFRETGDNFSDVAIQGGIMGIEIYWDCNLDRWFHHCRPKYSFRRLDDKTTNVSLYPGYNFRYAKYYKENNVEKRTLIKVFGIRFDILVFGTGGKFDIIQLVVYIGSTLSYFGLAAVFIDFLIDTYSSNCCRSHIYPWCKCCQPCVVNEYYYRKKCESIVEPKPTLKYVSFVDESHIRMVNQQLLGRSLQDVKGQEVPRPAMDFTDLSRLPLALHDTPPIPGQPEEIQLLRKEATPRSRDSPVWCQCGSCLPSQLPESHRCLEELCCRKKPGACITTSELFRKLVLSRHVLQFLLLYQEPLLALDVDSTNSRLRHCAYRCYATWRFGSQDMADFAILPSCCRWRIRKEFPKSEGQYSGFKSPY
Assay: P2X7 calcium mobilization assay, high throughput, antagonist activity (Example 4A)
Type: cell-based
Outline: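 100,000 cells/well, plated day -1. Dye 1 h → rinse → compound 1 h, RT → FLIPR^TETRA Ca2+ mobilization. Max RFU minus mean negative control (no agonist); mean agonist-well max as positive control.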

[1] = 50% decrease in the fluorescence response of cells exposed to 80 μM of 2′(3′)-O-(4-benzoyl-benzoyl)adenosine 5′-triphosphate, determined as in Example 4A, read-out: IC50
[2] = 50% decrease in the fluorescence response of cells exposed to 80 μM of 2′(3′)-O-(4-benzoyl-benzoyl)adenosine 5′-triphosphate, Example 4A, read-out: IC50
[3] = 50% decrease in the fluorescence response of cells exposed to 80 μM 2′(3′)-O-(4-benzoyl-benzoyl)adenosine 5′-triphosphate, Example 4A, read-out: IC50
[4] = fluorescence response of cells exposed to 80 μM 2′(3′)-O-(4-benzoyl-benzoyl)adenosine 5′-triphosphate, Example 4A, read-out: IC50
[5] = SH-SY5Y cells, 50% decrease in fluorescence response to 80 μM BzATP, read-out: IC50

IC50 [1]: < 2000 nM
SMILES: CCOC(=O)Cc1cn2c(C(=O)NCC3(c4ccc(Cl)cc4)CCCCC3)cccc2n1 [Compound 914, ethyl [5-({[1-(4-chlorophenyl)cyclohexyl]methyl}carbamoyl)imidazo[1,2-a]pyridin-2-yl] acetate]

IC50 [2]: < 2000 nM
SMILES: CCOC(=O)CCc1cn2c(C(=O)NCC34CC5CC(CC(C5)C3)C4)cccc2n1 [Compound 756, ethyl 3-{5-[(adamantan-1-ylmethyl)carbamoyl]imidazo[1,2-a]pyridin-2-yl}propanoate]

IC50 [3]: < 2000 nM
SMILES: CN(C(=O)c1cn2c(C(=O)NCC34CC5CC(CC(C5)C3)C4)cccc2n1)C1CCNCC1 [Compound 606, 5-N-(adamantan-1-ylmethyl)-2-N-methyl-2-N-piperidin-4-ylimidazo[1,2-a]pyridine-2,5-dicarboxamide]

IC50 [2]: < 2000 nM
SMILES: CC(C)CC(CNC(=O)c1cccc2nc(CC(=O)NC3CCCC3)cn12)c1ccc(Cl)cc1 (centres unmarked) [Compound 794, N-[2-(4-chlorophenyl)-4-methylpentyl]-2-[2-(cyclopentylamino)-2-oxoethyl]imidazo [1,2-a]pyridine-5-carboxamide]

IC50 [1]: < 2000 nM
SMILES: O=C(NCC12CC3CC(CC(C3)C1)C2)c1cccc2nc(CC(=O)N3CCS(=O)(=O)CC3)cn12 [Compound 820, N-(adamantan-l-ylmethyl)-2-[2-(1,1-dioxidothio-morpholin-4-yl)-2-oxoethyl] imidazo[1,2-a] pyridine-5-carboxamide]

IC50 [4]: < 2000 nM
SMILES: CS(=O)(=O)N1CCN(C(=O)c2cn3c(NC(=O)CC45CC6CC(CC(C6)C4)C5)cccc3n2)CC1 [Compound 399, 2-adamantan-1-yl-N-(2-{[4-(methylsulfonyl)piperazin-1-yl]carbonyl}imidazo [1,2-a]pyridin-5-yl)acetamide]

IC50 [2]: < 2000 nM
SMILES: NC1CCCN(C(=O)c2cn3c(C(=O)NCC45CC6CC(CC(C6)C4)C5)cccc3n2)C1 (centres unmarked) [Compound 627, N-(adamantan-1-ylmethyl)-2-[(3-aminopiperidin-1-yl)carbonyl]imidazo[1,2-a]pyridine-5-carboxamide]

IC50 [2]: < 2000 nM
SMILES: CN(C(=O)Cc1cn2c(C(=O)NCC34CC5CC(CC(C5)C3)C4)cccc2n1)C1CCOCC1 [Compound 767, N-(adamantan-1-ylmethyl)-2-{2-[methyl(tetrahydro-2H-pyran-4-yl)amino]-2-oxoethyl} imidazo[1,2-a] pyridine-5-carboxamide]

IC50 [1]: < 2000 nM
SMILES: O=C(NCC1(c2ccc(C(F)(F)F)cc2)CCCCC1)c1cccc2nc(CC(=O)N3CCn4cncc4C3)cn12 [Compound 879, 2-[2-(5,6-dihydroimidazo[1,5-a]pyrazin-7(8H)-yl)-2-oxoethyl]-N-({1-[4-(trifluoromethyl)phenyl]cyclohexyl}methyl) imidazo[1,2-a] pyridine-5-carboxamide]

IC50 [3]: < 2000 nM
SMILES: O=C(NCC12CC3CC(CC(C3)C1)C2)c1cccc2nc(CN3CCS(=O)(=O)CC3)cn12 [Compound 537, N-(adamantan-1-ylmethyl)-2-[(1,1-dioxidothiomorpholin-4-yl)methyl]imidazo[1,2-a]pyridine-5-carboxamide]

IC50 [5]: < 2000 nM
SMILES: CC(C)C(=O)NC1CCN(C(=O)Cc2cn3c(C(=O)NCC45CC6CC(CC(C6)C4)C5)cccc3n2)CC1 [Compound 184, N-(adamantan-1-ylmethyl)-2-{2-[4-(isobutyrylamino)piperidin-1-yl]-2-oxoethyl}imidazo[1,2-a]pyridine-5-carboxamide]

IC50 [5]: < 2000 nM
SMILES: CN(CCCC(C)(C)O)C(=O)Cc1cn2c(C(=O)NCC34CC5CC(CC(C5)C3)C4)cccc2n1 [Compound 59, N-(adamantan-1-ylmethyl)-2-{2-[(4-hydroxy-4-methylpentyl)(meth-yl)amino]-2-oxoethyl}imidazo[1,2-a]pyridine-5-carboxamide]

IC50 [1]: < 2000 nM
SMILES: CCOC(=O)C(Cc1ccc(Cl)cc1)c1cn2c(C(=O)NCC3(c4ccc(Cl)cc4)CCCCC3)cccc2n1 (centres unmarked) [Compound 934, ethyl 3-(4-chlorophenyl)-2-[5-({[1-(4-chlorophenyl)cyclohexyl]methyl}carbamoyl)imidazo[1,2-a]pyridin-2-yl]propanoate]

IC50 [2]: < 2000 nM
SMILES: O=C(NCC12CC3CC(CC(C3)C1)C2)c1cccc2nc(Cc3nnn[nH]3)cn12 [Compound 685, N-(adamantan-1-ylmethyl)-2-(1H-tetrazol-5-ylmethyl)imidazo[1,2-a]pyridine-5-carboxamide]

IC50 [4]: < 2000 nM
SMILES: CC(C)CC(CNC(=O)c1cccc2nc(C(=O)N3CCCC3)cn12)c1ccccc1 (centres unmarked) [Compound 260, N-(4-methyl-2-phenylpentyl)-2-(pyrrolidin-1-ylcarbonyl)imidazo [1,2-a]pyridine-5-carboxamide]

IC50 [1]: < 2000 nM
SMILES: CCOC(=O)Cc1cn2c(C(=O)NCC(CC(C)C)c3ccc(Cl)cc3)cccc2n1 (centres unmarked) [Compound 913, ethyl (5-{[2-(4-chlorophenyl)-4-methylpentyl]carbamoyl}imidazo[1,2-a]pyridin-2-yl) acetate]

IC50 [5]: < 2000 nM
SMILES: O=C(NCCCO)c1cn2c(C(=O)NCC34CC5CC(CC(C5)C3)C4)cccc2n1 [Compound 80, 5-N-(adamantan-1-ylmethyl)--(3-hydroxy-propyl)imidazo[1,2-a]pyridine-2,5-dicarboxamide]

IC50 [1]: < 2000 nM
SMILES: CCOC(=O)Cc1nnn(Cc2cn3c(C(=O)NCC45CC6CC(CC(C6)C4)C5)cccc3n2)n1 [Compound 901, ethyl [2-({5-[(adamantan-1-ylmethyl)carbamoyl]imidazo[1,2-a]pyridin-2-yl}methyl)-2H-tetrazol-5-yl]acetate]

IC50 [1]: < 2000 nM
SMILES: Cc1ccc(C2(CNC(=O)c3cccc4nc(CC(Cc5ccccc5)C(=O)O)cn34)CCCCC2)cc1 (centres unmarked) [Compound 1011, 2-benzyl-3-[5-({[1-(4-methylphenyl)cyclohexyl]methyl}carbamoyl)imidazo[1,2-a]pyridin-2-yl] propanoic acid]

IC50 [4]: < 2000 nM
SMILES: CS(=O)(=O)NC1CCN(C(=O)c2cn3c(NC(=O)CC45CC6CC(CC(C6)C4)C5)cccc3n2)CC1 [Compound 398, 2-adamantan-1-yl-N-[2-({4-[(methylsulfonyl)amino]piperidin-1-yl}carbonyl)imidazo [1,2-a]pyridin-5-yl]acetamide]

SMILES: CC(C)CNCc1cn2c(C(=O)NCC34CC5CC(CC(C5)C3)C4)cccc2n1 [Compound 12, N-(adamantan-1-ylmethyl)-2-[(isobutyl-amino)methyl]imi-dazo[1,2-a]pyridine-5-carboxamide]
IC50: < 2000 nM

IC50 [1]: < 2000 nM
SMILES: CC(C)(C)CCNC(=O)Cc1cn2c(C(=O)NCC3(c4ccc(C(F)(F)F)cc4)CCCCC3)cccc2n1 [Compound 883, 2-{2-[(3,3-dimethylbutyl)amino]-2-oxoethyl}-N-({1-[4-(trifluoromethyl)phenyl]cyclohexyl}methyl) imidazo[1,2-a] pyridine-5-carboxamide]

IC50 [2]: < 2000 nM
SMILES: CCOC(=O)C(Cc1ccncc1)c1cn2c(C(=O)NCC34CC5CC(CC(C5)C3)C4)cccc2n1 (centres unmarked) [Compound 735, ethyl 2-{5-[(adamantan-1-ylmethyl)carbamoyl]imidazo[1,2-a]pyridin-2-yl}-3-pyridin-4-ylpropanoate]

IC50 [4]: < 2000 nM
SMILES: CN(C)[S@SP3](=O)(=O)N1CCN(C(=O)c2cn3c(NC(=O)CC45CC6CC(CC(C6)C4)C5)cccc3n2)CC1 [Compound 400, 2-adamantan-1-yl-N-(2-{[4-(dimethylsulfamoyl)piperazin-1-yl]carbonyl}imidazo [1,2-a]pyridin-5-yl)acetamide]

IC50 [5]: < 2000 nM
SMILES: COC1CCCN(C(=O)Cc2cn3c(C(=O)NCC45CC6CC(CC(C6)C4)C5)cccc3n2)C1 (centres unmarked) [Compound 47, N-(adamantan-1-ylmethyl)-2-[2-(3-methoxypiperidin-1-yl)-2-oxoethyl]imidazo[1,2-a]pyridine-5-carboxamide]

IC50 [1]: < 2000 nM
SMILES: COC1CCN(C(=O)Cc2cn3c(C(=O)NCC4(c5cccnc5)CCCCC4)cccc3n2)CC1 [Compound 897, 2-[2-(4-methoxypiperidin-1-yl)-2-oxoethyl]-N-[(1-pyridin-3-ylcyclohexyl)methyl] imidazo[1,2-a] pyridine-5-carboxamide]

IC50 [4]: < 2000 nM
SMILES: O=C(O)CCS(=O)(=O)Cc1cn2c(C(=O)NCC34CC5CC(CC(C5)C3)C4)cccc2n1 [Compound 346, 3-[({5-[(adamantan-1-ylmethyl)carbamoyl]imidazo[1,2-a]pyridin-2-yl}methyl)sulfonyl] propanoic acid]

IC50 [1]: < 2000 nM
SMILES: O=C(NCC12CC3CC(CC(C3)C1)C2)c1cccc2nc(C3(C(=O)O)CCOCC3)cn12 [Compound 945, 4-{5-[(adamantan-1-ylmethyl)carbamoyl]imidazo[1,2-a]pyridin-2-yl}tetrahydro-2H-pyran-4-carboxylic acid]

IC50 [2]: < 2000 nM
SMILES: NCC1CCCN1C(=O)c1cn2c(C(=O)NCC34CC5CC(CC(C5)C3)C4)cccc2n1 (centres unmarked) [Compound 622, N-(adamantan-1-ylmethyl)-2-{[2-(aminomethyl)pyrrolidin-1-yl]carbonyl} imidazo[1,2-a]pyridine-5-carboxamide]
